# Data from patent US20260285867A1, “IMIDAZOTRIAZINE DERIVATIVES AS IL-17 MODULATORS” (UCB BIOPHARMA SRL, priority 2023, published 2026).
# Target: T1, IL-17A (Homo sapiens, UniProt Q16552)
# T1 sequence (Q16552 24-155): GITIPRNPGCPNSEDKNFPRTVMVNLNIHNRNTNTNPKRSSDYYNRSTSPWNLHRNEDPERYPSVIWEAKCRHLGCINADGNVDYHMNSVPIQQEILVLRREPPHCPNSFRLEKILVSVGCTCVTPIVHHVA
# Experiment: Inhibition of IL-17A induced IL-6 release from dermal fibroblast cell line (HDF cell line assay)
# Format: cell-based
# Conditions: HDF cells stimulated with IL-17A 50 pM + TNFα 25 pM, IL-6 release by HTRF
# Description: Inhibition of IL-17A Induced IL-6 Release from Dermal Fibroblast Cell Line The purpose of this assay is to test the neutralising ability to IL-17 proteins, in a human primary cell system. Stimulation of normal human dermal fibroblasts (HDF) with IL-17 alone produces only a very weak signal but in combination with certain other cytokines, such as TNFα, a synergistic effect can be seen in the production of inflammatory cytokines, i.e. IL-6. HDFs were stimulated with IL-17A (50 pM) in combination with TNF-α (25 pM). The resultant IL-6 response was then measured using a homogenous time-resolved FRET kit from Cisbio. The kit utilises two monoclonal antibodies, one labelled with Eu-Cryptate (Donor) and the second with d2 or XL665 (Acceptor). The intensity of the signal is proportional to the concentration of IL-6 present in the sample (Ratio is calculated by 665/620×104). The ability of a compound to inhibit IL-17 induced IL-6 release from human dermal fibroblasts is measured in this assay. […] The cells were re-suspended in complete media (5 mL) counted and adjusted to a concentration of 3.125×10^4 cells/mL before being added to the 384 well assay plate (Corning #3701) at 40 μL per well. […] The mixture was incubated at room temperature for 3 h with gentle shaking (<400 rpm) before being read on a Synergy Neo 2 plate reader (Excitation: 330 nm; Emission: […]).
SMILES,pIC50 (listed as 1 (Peak 1)),pIC50 (listed as 2 (Peak 2))
"Cc1nonc1C(=O)N[C@H](c1cn2ncc(C3(C(=O)NCC(C)(F)F)CC(C)(O)C3)nc2n1)C1CCC(F)(F)CC1 (single isomer, unassigned) [Example 1]",7.7,–
"Cc1nonc1C(=O)N[C@H](c1cn2ncc(C3(C(=O)NCC(C)(F)F)CC(C)(O)C3)nc2n1)C1CCC(F)(F)CC1 (single isomer, unassigned) [Example 2]",–,8.4
